According to US7951789B2 (priority 2006, dated 2011):

Columns and labels:
[1] = Pharmacokinetic (PK) studies, oral, rat; assay type: in vivo; details: orally administered
Method: (§1) Methods: For pharmacokinetic (PK) and toxicology studies, B102 were orally administered to rats or monkeys at doses from 20 to 300 mg/kg/day up to 14 days. Hepatic nucleoside TP levels were determined by LC-MS/MS. Compounds (10 mg/kg/day) were administered once daily by oral gavage for 4 days in chimpanzees chronically infected with HCV genotype 1. HCV viral loads were monitored before, during and after treatment by quantitative RT-PCR.

[2] = test system: HCV genotype 1; test: Antiviral activity in chimpanzees chronically infected with HCV genotype 1; assay type: in vivo; details: 4 days; for Mean viral load reduction: HCV-infected chimpanzees, 10 mg/kg/day oral once daily
Method: as §1

[3] = Pharmacokinetic (PK) studies, oral, monkey; assay type: in vivo; details: orally administered
Method: as §1

[4] = Cytotoxicity evaluation in GS4.1 cells (Cell Titer 96 AQueous One Solution); assay type: cell-based; details: human, 72 hours
Method: (§2) Huh-7 cells containing HCV Conl subgenomic replicon (GS4.1 cells), (C. Seeger; Fox Chase University, Philadelphia, Pa., USA), are grown in Dulbecco's Modified Eagle Medium (DMEM) supplemented with 10% fetal bovine serum (FBS), 2 mM L-glutamine, 110 mg/L sodium pyruvate, 1×non-essential amino acids, 100 U/mL penicillin-streptomycin and 0.5 mg/mL G418 (Invitrogen). For dose-response testing, the cells are seeded in 96-well plates at 7.5×10^3 cells/well in a volume of 50 μL and incubated at 37° C./5% CO2. Three hours after plating, 50 μL of ten 2-fold serial dilutions of compounds (highest concentration, 75 μM) are added and cell cultures were incubated at 37° C./5% CO2 in the presence of 0.5% DMSO. Alternatively, compounds are tested at a single concentration of 15 μM. In all cases, Huh-7 cells lacking the HCV replicon served as negative control. The cells are incubated in the presence of compounds for 72 hours after which they were monitored for expression of the NS4A protein by enzyme-linked immunosorbent assay (ELISA). For this, the plates were then fixed for 1 min with 1:1 acetone:methanol, washed twice with phosphate-buffered saline (PBS), 0.1% Tween 20, blocked for 1 hour at room temperature with TNE buffer containing 10% FBS and then incubated for 2 h at 37° C. with the anti-NS4A mouse monoclonal antibody A-236 (ViroGen) diluted in the same buffer. After washing three times with PBS, 0.1% Tween 20, the cells are incubated 1 hour at 37° C. with anti-mouse immunoglobulin G-peroxidase conjugate in TNE, 10% FBS. After washing as described above, the reaction is developed with O-phenylenediamine (Zymed). The reaction is stopped after 30 minutes with […] and the absorbance is read at 492 nm using a Sunrise Tecan spectrophotometer. EC50 values are determined from the % inhibition versus concentration data using a sigmoidal non-linear regression analysis based on four parameters with Tecan Magellan software. […] For cytotoxicity evaluation, GS4.1 cells are treated with compounds as described above and cellular viability was monitored using a Cell Titer 96 AQueous One Solution Cell Proliferation Assay (Promega). CC50 values are determined from the % cytotoxicity versus concentration data with Tecan Magellan software as described above.

[5] = test system: HCV Conl subgenomic replicon (GS4.1 cells); test: HCV replicon assay (NS4A ELISA, HCV ELISA 2); assay type: cell-based; details: Hepatitis C virus; GS4.1 cells, 72 hours, NS4A ELISA; read-out: HCV ELISA 2 EC50
Method: as §2

[6] = test system: HBV wt (HepG2); test: Anti-HBV activity in HBV-infected HepG2 cells; assay type: cell-based; details: N=3
Method: The compound of Example 1 (NM 204) (Hydroxy-tBuSATE N-benzylphosphoramidate derivative of L-ddA) (A550) was contacted with HBV-infected HepG2 cells. EC50 values were measured according to standard techniques.

[7] = test system: endogenous HBV polymerase activity; test: HBV drug susceptibility assay (EPA read-out); assay type: cell-based
Method: • a) Collagen-I coated cell culture plates were seeded with cells at a density of 0.25-0.5×10^6 cells per well in 2 ml of growth/selection media. • b) Drug stock solutions were made up freshly in 100% DMSO as 200× stocks. Seven 4-fold dilutions of test compound were prepared ranging from 2.5 μM to 0.0006 μM (final). Master drug dilutions were divided into 4 aliquots, and then stored at −20° C. until used. • c) One day after cells were seeded, drug treatments were initiated by adding 10 μl of drug dilution along with 2 ml of fresh growth/selection media. […] The no-drug control wells received 10 μl of DMSO in fresh media. • d) Cells were treated every-other-day with 2 ml of fresh drug combinations/medium for a total of 8 days. Cell lysates were then collected on day 10 as described below and endogenous polymerase assay were performed. Preparation of Nucleocapsid-Containing Lysates for Epa Analysis • a) Two days after the final drug treatment, cells were harvested. • b) Media was carefully aspirated and the cell monolayers were rinsed once with 1 ml of PBS. • c) 1 ml of lysis buffer (50 mM Tris-HCl pH 7.5/150 mM NaCl/5 mM MgCl2/0.2% NP-40) was added to each well. The detergent is required to strip the outer envelope from virions and to allow capture of the inner nucleocapsids. Plates were kept on ice for >30 min. • d) Lysed cells were transferred to 1.5 ml-microfuge tubes. • e) Lysates were clarified by spinning at room temperature for 5 min at 14,000 rpm. • f) Clarified lysates were transferred to fresh tubes and immediately frozen on dry-ice, then stored at −80° C. until endogenous polymerase assays can be performed as described below. Endogenous Polymerase Assay (EPA) of Cell Lysates • a) EPAs were performed essentially as described in Seifer, et al (1998). J. Virol. 72: 2765-2776. […] The detergent is required to enhance permeability of the nucleocapsids. • d) Following digestion with 1 mg/ml of Proteinase K for 1 hour at 37° C., endogenously ^33P-labeled HBV DNA was liberated via phenol/chloroform extraction. • e) The nucleic acids were then precipitated with one volume of 5 M NH4-acetate and 2.5 volumes 100% EtOH, and separated on a 1% native agarose gel in Tris-borate buffer. • f) Gels were blotted onto positively charged nylon membrane overnight at room temperature via capillary transfer in 0.4 N NaOH. • g) Dried membranes were exposed to a phosphoimager screen (GE Healthcare) overnight at room temperature, then scanned (Storm 860, GE Healthcare) and quantitated with ImageQuant software (GE Healthcare). • h) Dose-response curves were generated using XLfit 4.1 software. The mean effective drug concentrations that inhibit endogenous HBV polymerase activity by 50% were calculated from several independent experiments. Cytotoxicity Determination

[8] = In vitro cytotoxicity assay in HepG2 cells (MTS); assay type: cell-based; details: human, collagen plates
Method: A standard in vitro cytotoxicity assay was performed in HepG2 cells. Cells were exposed to drug for 9 days. Cell viability was determined via MTS staining using a CellTiter 96 Aqueous One Solution cell proliferation assay according to the manufacturer's instructions. • a) HepG2 cells were seeded in 96-well tissue culture plates in 100 μl fresh growth media at 7×10^3 cells per well. • b) Drug stock solutions were made up in 100% DMSO as 400× stock solutions and stored at −20° C. until used. • c) Four hours after cells were plated the drug dilutions were prepared and then added to the cells. Cells received up to 100 μM of drug in a total of 200 μl of fresh growth media containing 0.25% DMSO. Control wells received growth media with 0.25% DMSO growth media. Plates were incubated at 37° C., 5% CO2. • d) Cells were treated every-other-day with fresh growth media and fresh drug dilutions for a total of 8 days as described above. • e) On day 9, cell viability of HepG2 cells was determined by adding 20 μl of MTS CellTiter 96 Aqueous One Solution.

[9] = test system: wild-type HBV (intracellular nucleocapsids); test: Anti-HBV activity in HBV nucleocapsids (RI) via endogenous polymerase assay (EPA); assay type: cell-based; details: Hepatitis B virus; wild-type HBV producer cell line, intracellular nucleocapsids, EPA; read-out: RI EC50
Method: (§3) Compounds were tested in an anti-HBV assay. Determination of anti-HBV activity in HBV virions and nucleocapsids via endoenous polymerase assays (EPA)
(§4) • 1. 12-well collagen-I coated plates were seeded with producer cells expressing wild-type HBV at a density of 0.5-1×10^6 cells per well in 2 ml growth/selection media. • 2. Drug stock solutions were made up freshly in 100% DMSO as 200× stocks. Five additional 4-fold dilutions were prepared from these 200× stock in 100% DMSO. For each experiment, 4 aliquots of each drug dilution series were stored at −20° C. until used. • 3. Once cells reached confluency (1 day after cells were seeded), drug treatment was initiated by adding 10 μl of drug dilution into 2 ml of fresh growth/selection media. […] The no-drug control wells received only 10 μl of DMSO in fresh media. • 4. Cells were treated every-other-day with 2 ml of fresh drug/medium for a total of 8 days. Cell lysates were then collected on day 10 and subjected to EPA analysis as described below. Preparation of Nucleocapsid-Containing Lysates for Epa Analysis • 1. Cells were grown for 3 to 4 days in 12-well collagen-I coated plates until confluent. • 2. Media was carefully aspirated and the cell monolayers were rinsed once with 1 ml of PBS. • 3. One ml of lysis buffer (50 mM Tris-HCl pH 7.5/150 mM NaCl/5 mM MgCl2/0.2% NP-40) was added to each well. Plates were stored on ice for 30 min to 4 h. • 4. Lysed cells were transferred to 1.5 ml-microfuge tubes. • 5. Lysates were clarified by spinning at 14,000 rpm for 5 min at room temperature. • 6. Clarified lysates were transferred to fresh tubes and immediately frozen on dry-ice, then stored at −80° C. until endogenous polymerase assays were performed as described below. Preparation of Secreted Virions from Supernatant for Epa Analysis • 1. Cells were grown for 3 to 4 days in 12-well collagen-I coated plates until confluent. • 2. Media was carefully aspirated and transferred to 1.5 ml-microfuge tubes. • 3. Supernatants were clarified by spinning at 14,000 rpm for 5 min at room temperature. • 4. Clarified supernatants were transferred to fresh tubes and immediately frozen on dry-ice, then stored at −80° C. until endogenous polymerase assays were performed essentially as described below. Endogenous Polymerase Assay (EPA) of Cell Lysates and Supernatants • 1. EPAs were performed essentially as described by Seifer et al (1998). Intracellular HBV nucleocapsids were immunoprecipitated from the cytoplasmic lysates overnight at 4° C. with a polyclonal rabbit anti-HBcAg antibody and immobilized on protein A sepharose CL-4B beads. Secreted virions were immunoprecipitated from clarified cell supernatants overnight at 4° C. with a monoclonal mouse anti-LS antibody (MA18/7) in the absence of detergent. • 2. Following 3 washes of the immobilized capsids or virions with 1 ml of EPA wash buffer (75 mM NH4Cl, 50 mM Tris-HCl pH 7.4, 1 mM EDTA), endogenous polymerase reactions were initiated by adding 50 μl of detergent-containing EPA cocktail (50 mM Tris-HCl pH7.4, 75 mM NH4Cl, 1 mM EDTA, 20 mM MgCl2, 0.1 mM β-ME, 0.5% NP-40, 100 μM cold dGTP, TTP, dCTP, and 50 nM ^33P-dATP) and incubated overnight at 37° C. The detergent is required to strip the outer envelope from immunoprecipitated virions as well as to enhance permeability of the nucleocapsids. • 3. Following digestion with 1 mg/ml of proteinase K for 1 h at 37° C., endogenously ^33P-labeled HBV DNA was liberated via phenol/chloroform extraction. • 4. The nucleic acids were precipitated with 1 volume of 5M NH4-acetate and 2.5 volumes of 100% EtOH, and then separated on a 1% native agarose gel in Tris-borate-EDTA buffer. • 5. Gels were blotted onto positively charged nylon membrane overnight at room temperature via capillary transfer in 0.4 N NaOH. • 6. Dried membranes were exposed to a Phosphorlmager screen (GE Healthcare) overnight at room temperature, then scanned (Storm 860, GE Healthcare) and quantitated with ImageQuant software (GE Healthcare). • 7. […]

[10] = test system: wild-type HBV (secreted virions); test: Anti-HBV activity in HBV virions via endogenous polymerase assay (EPA); assay type: cell-based; details: Hepatitis B virus, read-out: Virion EC50 (μM)
Method: as §3, §4

CC(C)(CO)C(=O)SCCOP(=O)(NCc1ccccc1)OC[C@H]1O[C@@H](n2ccc(N)nc2=O)[C@](C)(O)[C@@H]1O (mixture of isomers) [Example B102, Hydroxy-tBuSATE N-benzylphosphoramidate Derivative of 2′-C-methylcytidine]
first-pass hepatic extraction [1]: > 95% | systemic exposure [1]: < 1% | Mean viral load reduction [2]: 1.5 log 10 | lab abnormalities or evidence of toxicities ([2]; chimpanzees, 10 mg/kg/day oral): No lab abnormalities or evidence of toxicities were observed | first-pass hepatic extraction [3]: > 95% | systemic exposure [3]: < 1% | CC50 [4]: > 75 µM | EC50 [5]: 1 to 10 µM

CC(C)(CO)C(=O)SCCOP(=O)(NCc1ccccc1)OC[C@H]1CC[C@@H](n2cnc3c(N)ncnc32)O1 (stereo partly shown) [Ex 1 (A550)]
EC50 ([6]; Hepatitis B virus): 0.062 ± 0.018 µM

Nc1ccn([C@@H]2CS[C@H](CO)O2)c(=O)n1 [Lamivudine, lamivudine]
EC50 ([6]; Hepatitis B virus): 0.022 ± 0.007 µM

Nc1ncnc2c1ncn2CCOCP(=O)(O)O [PMEA]
SI ([7]; CC50/EC50, HBV Cell Assay (EPA Read-out)): >310 | EC50 ([7]; Hepatitis B virus, HBV Cell Assay (EPA Read-out), collagen plates, read-out: Antiviral Activity (EC50 in μM)): 0.328 ± 0.082 µM | CC50 at 9 days [8]: > 100 µM | EC50 [9]: < 1 µM

CC(C)[C@H](N)C(=O)O[C@@H]1[C@@H](CO)O[C@@H](n2ccc(N)nc2=O)[C@]1(C)O [valopicitabine, reference compound]
Mean viral load reduction [2]: 0.7 log 10

CC(C)(CO)C(=O)SCCOP(=O)(NCc1ccccc1)OC[C@H]1CC[C@@H](n2cnc3c(N)ncnc32)O1 (stereo partly shown) [A550 (NM 204)]
EC50 [10]: < 1 µM | EC50 [9]: < 1 µM

CC(C)(CO)C(=O)SCCOP(=O)(NCc1ccccc1)OC[C@@H]1CC[C@H](n2cnc3c(N)ncnc32)O1 (stereo partly shown) [C819 (NM 177)]
EC50 [10]: 1 to 10 µM | EC50 [9]: 1 to 10 µM

CC(C)NP(=O)(OCCSC(=O)C(C)(CO)CO)OC[C@@H]1CC[C@H](n2cnc3c(N)ncnc32)O1 (stereo partly shown) [A362 (NM 77)]
EC50 [10]: 1 to 10 µM | EC50 [9]: 1 to 10 µM

Nc1ncnc2c1ncn2[C@@H]1CC[C@H](CO)O1 [LddA, L-ddA]
EC50 [6]: > 10 µM
